From publication PMC12684391, “Mechanistic insights into the monotherapy and combination potential of FEN1 inhibition in cancer therapy” (Nucleic Acids Research, 2025) come the findings set out here.

What all share (assay type): cell-based
For assay [1], the target named is T1, NanoLuc-FEN1 (Homo sapiens, UniProt P39748).
T1 construct: host or cells: HEK-293
The assay is described as follows: NanoBRET cellular target engagement assay in HEK-293 cells. To be noted: more potent than MSC781. The protocol:
The NanoBRET™ assay was set-up and performed by Promega, Madison, USA [40]. The tracer compound (“tracer 6”) was synthesized based on an in-house compound. A NanoLuc®-FEN1 expression plasmid was transiently transfected into HEK-293 cells and 20 µl of subsequent cell/DNA suspension dispensed into wells of 384-well assay plates. Tracer 6 (final concentration 125 nM) and test compounds (10 step 1:3 dilution from a top concentration of 10 µM) in 100% DMSO were dispensed with a Echo Labcyte (Beckman Coulter) in technical duplicates.
To induce NanoLuc activity, 10 µl of 3× detection substrate NanoBRET™ Nano-GLO® Live Cell Solution in OptiMEM with digitonin (final concentration 150 µg/ml) were added per well. Kinetics were followed by luminescence multimode reader (DonorEm 450nm/AcceptorEm 610 nm) for 1 h. BRET ratios were calculated and resulting mBRET values were graphed versus compound concentrations and fitted to a nonlinear regression curve (four parameters) to determine IC50 values.
In this assay, NanoBRET occurs between a fluorescent moiety (acceptor) on a tracer molecule and the NanoLuc tag (donor) on FEN1 that are in close proximity.
(In general: BRET reads energy transfer from a luciferase to a nearby fluorophore.)

The test system of assay [2] is MMEJ (resection dependent reporter). The assay is described as follows: Extrachromosomal MMEJ reporter assay, resection dependent, HEK-293. Conditions: Homo sapiens, HEK293, HEK-293, 24 h, read-out: MMEJ inhibition EC50. The protocol:
MMEJ resection-independent and MMEJ resection-dependent reporter assays performed as previously described. In brief, HEK-293 cells were resuspended in supplemented SF nucleofection solution (Lonza) containing nanoluciferase DNA substrate and Firefly luciferase plasmid (Promega) at a ratio of 100 μl SF: 1500 ng nanoluciferase substrate: 1000 ng Firefly plasmid: ∼1.5 × 10^6 cells. Cells were electroporated and recovered into fresh media before seeding into a 96-well plate pre-dosed with compounds and DMSO control.
After 24 h, Firefly and NanoLuc levels were detected using the Nano-Glo® Dual-Luciferase® Reporter Assay system (Promega) as per the manufacturer’s instructions. NanoLuc luminescence (reporter) was normalized to Firefly luminescence (control) to determine substrate repair. Percentage repair was calculated relative to the DMSO control.
For orientation: In a reporter assay the amount or activity of a reporter protein is the signal.

Assay [3] relates to DLD-1, DLD-1 BRCA2KO, SUM149PT, MDA-MB-436 cells. Description: Cell cycle analysis by immunofluorescence (PCNA/DAPI). The protocol: Cells were seeded at a density of 10 000 cells per well in 100 μl of media in collagen-coated 96-well plates (Revvity, #6055700). Twenty-four hours after seeding, cells were treated with the indicated doses of MSC2798778, MSC2798781, or DMSO (Apollo Scientific, BID1200) using a D300e digital dispenser (Tecan) for 24 h. Cells were washed with PBS and fixed in 4% PFA (ChemCruz, sc-281692) for 10 min at room temperature.
For immunofluorescence staining, cells were washed with PBS then blocked and permeabilized with PBS containing 0.5% BSA and 0.5% Triton X-100 (blocking buffer) for 45 min at room temperature. Cells were then stained with the indicated markers by incubation with primary antibodies (Supplementary Table S5) diluted in the blocking buffer, overnight at 4°C. […]
• Foci were quantified by setting up a contrast threshold higher than the background signal. • pKAP1 positive cells were selected using a mean intensity threshold. • Cell cycle analysis was performed by defining gates on a bivariate plot of DAPI total nuclear intensity and PCNA mean nuclear intensity. PCNA positive cells were scored as cells in S-phase. G1 and G2/M cells were scored as PCNA negative cells with differential DNA content. • PARylation and replication levels were quantified by measuring the mean nuclear fluorescence intensity, in PCNA positive cells, of poly/mono-ADP ribosylation and EdU, respectively.

T1 sequence (P39748 whole entry): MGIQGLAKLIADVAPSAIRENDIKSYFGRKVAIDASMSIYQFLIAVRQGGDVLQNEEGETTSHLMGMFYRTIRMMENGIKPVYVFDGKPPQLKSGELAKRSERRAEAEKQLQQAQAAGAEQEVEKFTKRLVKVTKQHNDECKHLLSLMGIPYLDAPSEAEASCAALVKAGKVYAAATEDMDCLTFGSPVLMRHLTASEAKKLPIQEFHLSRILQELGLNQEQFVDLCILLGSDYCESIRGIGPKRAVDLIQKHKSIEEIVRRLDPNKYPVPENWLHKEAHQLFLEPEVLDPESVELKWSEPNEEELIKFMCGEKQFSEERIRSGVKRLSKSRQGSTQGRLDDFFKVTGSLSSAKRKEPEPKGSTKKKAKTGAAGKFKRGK

Regarding `C[C@H](Oc1nn2c(c(O)c1=O)C(=O)N1CCOC[C@@H]1C2)c1ccc2ccc(Cl)cc2c1` [MSC778], in assay [1], the “NanoBRET potency relative to MSC781” value came out at 23 fold. For the same molecule, the EC50 (commonly the concentration needed to bring the measured effect to its halfway point) in assay [2] amounted to 840 nM. For the same molecule, the Cell cycle effect result in assay [3] (24 h treatment, all four cell lines) is on record as “titratable S-phase accumulation”.
In the case of `C[C@@H](Oc1nn2c(c(O)c1=O)C(=O)N1CCOC[C@@H]1C2)c1ccc2ccc(Cl)cc2c1` [MSC781], in assay [3] (3 µM, HRD panel and EWS panel (U-2 OS, RD-ES, MHH-ES-1)), the Cell cycle effect result is on record as “not perturbed”.
